Data published in the NIST ThermoML archive (doi:10.1016/j.jct.2018.10.007).

Settings: Liquid, Rate of evaporation

CCCCCCCC[P+](CCCCCCCC)(CCCCCCCC)CCCCCCCC.[Cl-] [tetraoctylphosphonium chloride]
Settings | vapor or sublimation pressure [kPa]
408.38 K | 1.5e-10
410.9 K | 2.3e-10
413.32 K | 2.9e-10
413.46 K | 3.3e-10
415.87 K | 4.2e-10
418.26 K | 5.5e-10
418.44 K | 5.9e-10
420.79 K | 7.9e-10
423.23 K | 1e-09
423.41 K | 1.2e-09
425.8 K | 1.5e-09
428.2 K | 2e-09
428.36 K | 2e-09
430.73 K | 2.7e-09
433.18 K | 3.8e-09
433.31 K | 3.7e-09
435.74 K | 5e-09
438.21 K | 6.7e-09
438.28 K | 6.6e-09
440.77 K | 8.8e-09
443.21 K | 1.2e-08
443.3 K | 1.2e-08
445.8 K | 1.5e-08
448.27 K | 2.1e-08
448.33 K | 2e-08
450.84 K | 2.6e-08
453.31 K | 3.9e-08
453.36 K | 3.4e-08
455.89 K | 4.6e-08
458.4 K | 6.2e-08

CCCCCCCC[P+](CCCCCC)(CCCCCC)CCCCCC.F[P-](F)(F)(F)(F)F [trihexyloctylphosphonium hexafluorophosphate]
Settings | vapor or sublimation pressure [kPa]
408.34 K | 3.4e-10
410.85 K | 4.4e-10
410.96 K | 4.8e-10
413.36 K | 6.3e-10
415.82 K | 8.4e-10
415.89 K | 8e-10
418.37 K | 1.1e-09
420.79 K | 1.5e-09
420.83 K | 1.5e-09
423.37 K | 2e-09
425.75 K | 2.7e-09
425.79 K | 2.7e-09
428.38 K | 3.6e-09
430.75 K | 4.6e-09
430.81 K | 4.7e-09
433.38 K | 6.1e-09
435.72 K | 8e-09
435.73 K | 7.9e-09
438.4 K | 1.1e-08
440.74 K | 1.4e-08
443.39 K | 1.8e-08
445.76 K | 2.3e-08
448.39 K | 3e-08
450.79 K | 3.9e-08
450.8 K | 3.8e-08
453.43 K | 5.1e-08
455.83 K | 6.5e-08
455.85 K | 6.4e-08

CCCCCCCCCCCCCC[P+](CCCCCC)(CCCCCC)CCCCCC.O=S(=O)([N-]S(=O)(=O)C(F)(F)F)C(F)(F)F
Settings | vapor or sublimation pressure [kPa]
399.34 K | 2.3e-11
404.33 K | 4.6e-11
405.52 K | 5.3e-11
407.95 K | 7.1e-11
408.01 K | 7.5e-11
409.24 K | 8.6e-11
409.33 K | 8.9e-11
410.52 K | 1e-10
412.96 K | 1.4e-10
413 K | 1.5e-10
413.93 K | 1.7e-10
414.15 K | 1.7e-10
414.24 K | 1.7e-10
414.33 K | 1.7e-10
415.52 K | 2e-10
417.97 K | 2.9e-10
418 K | 2.7e-10
419.13 K | 3.2e-10
419.16 K | 3.3e-10
419.24 K | 3.1e-10
419.33 K | 3.2e-10
420.52 K | 3.8e-10
422.97 K | 5.4e-10
423.01 K | 5.1e-10
423.46 K | 5.2e-10
424.17 K | 6.4e-10
424.24 K | 6.4e-10
424.31 K | 6.1e-10
425.53 K | 7.3e-10
427.91 K | 9.2e-10
427.98 K | 1e-09
428.01 K | 1e-09
429.18 K | 1e-09
429.24 K | 1e-09
429.26 K | 1.1e-09
430.53 K | 1.3e-09
432.25 K | 1.5e-09
433 K | 1.8e-09
433.02 K | 1.7e-09
434.17 K | 2e-09
434.2 K | 1.9e-09
434.24 K | 1.9e-09
435.54 K | 2.3e-09
436.8 K | 2.6e-09
438.01 K | 3.1e-09
438.02 K | 3e-09
439.04 K | 3.4e-09
439.21 K | 3.6e-09
439.23 K | 3.4e-09
440.54 K | 4e-09
441.79 K | 4.6e-09
443.01 K | 5.2e-09
443.03 K | 5.2e-09
443.88 K | 5.8e-09
444.2 K | 5.9e-09
444.26 K | 6.3e-09
445.56 K | 6.9e-09
446.75 K | 8e-09
448.02 K | 8.9e-09
448.07 K | 8.7e-09
449.16 K | 1e-08
449.26 K | 1e-08
450.57 K | 1.2e-08
451.67 K | 1.4e-08
453.06 K | 1.4e-08
454.09 K | 1.7e-08
454.27 K | 1.9e-08
456.51 K | 2.2e-08
458.95 K | 2.8e-08

CCCCCC[P+](CCCCCC)(CCCCCC)CCCCCC.[Br-] [tetrahexylphosphonium bromide]
Settings | vapor or sublimation pressure [kPa]
400.93 K | 3.7e-10
403.37 K | 5.3e-10
403.43 K | 5e-10
408.28 K | 9.5e-10
408.37 K | 9.4e-10
410.79 K | 1.2e-09
410.8 K | 1.3e-09
410.82 K | 1.3e-09
413.22 K | 1.7e-09
413.3 K | 1.7e-09
415.71 K | 2.1e-09
415.72 K | 2.2e-09
415.78 K | 2.3e-09
418.18 K | 2.9e-09
418.27 K | 2.9e-09
420.76 K | 3.9e-09
423.16 K | 5.2e-09
423.23 K | 5.4e-09
425.66 K | 6.9e-09
425.67 K | 6.8e-09
425.75 K | 6.8e-09
428.16 K | 8.8e-09
428.22 K | 8.9e-09
430.73 K | 1.2e-08
433.18 K | 1.5e-08
433.24 K | 1.5e-08
435.67 K | 2e-08
435.68 K | 2e-08
435.75 K | 2e-08
438.21 K | 2.5e-08
438.25 K | 2.6e-08
440.7 K | 3.3e-08
440.72 K | 3.3e-08
440.77 K | 3.4e-08
443.24 K | 4.2e-08
443.29 K | 4.3e-08
445.74 K | 5.5e-08
445.75 K | 5.5e-08
445.79 K | 5.8e-08
448.3 K | 7.2e-08
448.31 K | 7.1e-08
450.8 K | 9.1e-08
450.81 K | 9e-08

CCCCCCC[P+](CCCCCC)(CCCCCC)CCCCCC.O=S(=O)([N-]S(=O)(=O)C(F)(F)F)C(F)(F)F [trihexylheptylphosphonium bis(trifluoromethanesulfonyl)imide]
Settings | vapor or sublimation pressure [kPa]
408.53 K | 6.2e-10
410.91 K | 8.8e-10
413.56 K | 1.1e-09
415.89 K | 1.6e-09
418.57 K | 2.1e-09
420.85 K | 2.8e-09
423.58 K | 3.8e-09
425.82 K | 4.9e-09
428.58 K | 6.7e-09
430.8 K | 8.5e-09
433.58 K | 1.2e-08
435.79 K | 1.5e-08
438.58 K | 2e-08
440.78 K | 2.5e-08
443.58 K | 3.4e-08
445.8 K | 4.2e-08
448.56 K | 5.8e-08
450.83 K | 7e-08
453.59 K | 9.5e-08
455.88 K | 1.16e-07

CCCCCCC[P+](CCCCCC)(CCCCCC)CCCCCC.F[P-](F)(F)(F)(F)F [trihexylheptylphosphonium hexafluorophosphate]
Settings | vapor or sublimation pressure [kPa]
405.87 K | 3.6e-10
408.4 K | 4.9e-10
410.8 K | 6.7e-10
413.34 K | 9e-10
415.74 K | 1.2e-09
418.27 K | 1.6e-09
420.69 K | 2.2e-09
423.22 K | 2.8e-09
425.68 K | 3.8e-09
428.2 K | 4.9e-09
430.66 K | 6.5e-09
433.19 K | 8.4e-09
435.68 K | 1.1e-08
438.21 K | 1.5e-08
440.7 K | 1.9e-08
443.24 K | 2.5e-08
445.74 K | 3.1e-08
448.28 K | 4.2e-08
450.97 K | 5.3e-08
453.32 K | 6.9e-08

CCCCCC[P+](CCCCC)(CCCCCC)CCCCCC.F[P-](F)(F)(F)(F)F [trihexylpentylphosphonium hexafluorophosphate]
Settings | vapor or sublimation pressure [kPa]
403.41 K | 5e-10
405.89 K | 6.6e-10
408.27 K | 8.8e-10
410.78 K | 1.2e-09
413.19 K | 1.6e-09
415.69 K | 2.1e-09
418.15 K | 2.8e-09
420.65 K | 3.7e-09
423.13 K | 4.8e-09
425.62 K | 6.5e-09
428.15 K | 8.5e-09
430.63 K | 1.1e-08
433.15 K | 1.4e-08
435.65 K | 1.8e-08
438.17 K | 2.4e-08
440.7 K | 3.1e-08
443.21 K | 3.9e-08
445.73 K | 5.1e-08
448.25 K | 6.5e-08
450.79 K | 8.3e-08

CCCCCCCCCCCCCC[P+](CCCC)(CCCC)CCCC.O=S(=O)([N-]S(=O)(=O)C(F)(F)F)C(F)(F)F
Settings | vapor or sublimation pressure [kPa]
393.28 K | 1.6e-09
395.67 K | 2e-09
398.14 K | 2.9e-09
400.54 K | 4.1e-09
403.07 K | 5.3e-09
405.5 K | 7.3e-09
408.02 K | 1e-08
410.51 K | 1.4e-08
413.04 K | 1.8e-08
415.54 K | 2.5e-08
418.06 K | 3.3e-08
420.57 K | 4.4e-08
423.09 K | 6e-08
425.61 K | 7.6e-08
428.14 K | 1.03e-07
430.65 K | 1.35e-07
433.18 K | 1.7e-07
435.69 K | 2.23e-07
438.18 K | 2.92e-07
440.71 K | 3.73e-07

CCCCCC[P+](CCCCCC)(CCCCCC)CCCCCC.F[P-](F)(F)(F)(F)F [tetrahexylphosphonium hexafluorophosphate]
Settings | vapor or sublimation pressure [kPa]
395.83 K | 2e-10
400.74 K | 3.8e-10
405.65 K | 7e-10
408.42 K | 1e-09
410.61 K | 1.3e-09
413.37 K | 1.9e-09
415.59 K | 2.4e-09
418.31 K | 3.4e-09
423.24 K | 5.9e-09
428.21 K | 1e-08
430.65 K | 1.4e-08
433.2 K | 1.8e-08
435.66 K | 2.4e-08
438.23 K | 3.1e-08
440.69 K | 4e-08
443.24 K | 5e-08
445.73 K | 6.7e-08
448.28 K | 8.5e-08
451.57 K | 1.23e-07
453.41 K | 1.42e-07
